Measurements taken from patent US11415579B2, “Assay for measuring a rate of reaction between a target and a ligand candidate” (Imperial College Innovations Ltd., priority 2016, dated 2022).

Columns and labels:
[1] = Kinetic thiol consumption assay with model thiol glutathione; assay type: physicochemical; parameters: Rate constant with glutathione (k(GSH)): unit not given here; details: for Rate constant with glutathione (k(GSH)): 500 μM ligand, 5 μM thiol, phosphate buffer pH 8; for Rate constant with Glutathione: Protein: Glutathione, cysteine position NA, in h-1
Summary of the method: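 Rate constants for acrylamide reaction with 5 μM glutathione come from first-order exponential fits of normalized fluorescence decay (ex 380, em 470 nm). Reactions run in degassed phosphate buffer at pH 8 containing TCEP beads, room temperature.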

[2] = molecular target: T1, human cyclin-dependent kinase 2 (Cdk2) (Homo sapiens, UniProt P24941); assay: Kinetic thiol consumption assay with wild type Cdk2 (C177); assay type: binding; parameters: key to Rate enhancement, Cdk2 WT: k(Cdk2) divided by k(model thiol); Rate constant with Cdk2 (k(Cdk2)): unit not given here; details: for Rate constant with Cdk2 (k(Cdk2)): 500 μM ligand, 5 μM thiol, phosphate buffer pH 8; for Rate enhancement, Cdk2 WT: no additional mutations; for Rate constant with Cdk2 WT: Protein: Cdk2, cysteine position WT, in h^-1; for k(Cdk2)/k(Cdk2_mut) rate enhancement: model thiol Cdk2[C177A, F80C, K278C]; for k(Cdk2)/k(GSH) rate enhancement: model thiol glutathione
T1 construct: poly-histidine; made in house; host or cells: E. coli
Summary of the method: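 His-tagged human Cdk2 (single surface cysteine C177), expressed in E. coli, or a model thiol at 5 μM in degassed phosphate buffer pH 8 was pre-treated with immobilized TCEP beads (2% v/v) before acrylamide addition. Fluorescence (ex/em 380/470 nm) was read after 1 h at room temperature, normalized to DMSO/thiol-only control and plotted versus time.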

[3] = molecular target: T2, Cdk2[C177A, F80C, K278C] (Homo sapiens, UniProt P24941, C177A/F80C/K278C); assay: Kinetic thiol consumption assay with mutant Cdk2 as model thiol; assay type: binding; parameters: unit not given here; details: 500 μM ligand, 5 μM thiol, phosphate buffer pH 8
T2 construct: poly-histidine; made in house; host or cells: E. coli
Experimental: A library of 120 acrylamides was screened against a) human cyclin-dependent kinase 2 (Cdk2, which contains one surface exposed cysteine residue—C177), prepared by cloning cDNA into the pRSETA bacterial expression vector to generate a poly-histidine tagged Cdk2 fusion that was purified from E. coli using standard techniques, and b) a model thiol (specific details are given below). The structures of these 120 acrylamides are set out in Table 1, above.
To wells containing 150 μL thiol (Cdk2 or model thiol) (5 μM) in degassed phosphate buffer (pH 8) was added immobilized TCEP beads (2% v/v).
After incubation of the fluorescence plates for 1 hour at room temperature, fluorescence measurements (excitation/emission of 380/470 nm) were taken on a PerkinElmer EnVision multilabel plate reader and processed with EnVision Workstation version 1.12.
Fluorescence measurements were normalized against a DMSO/thiol only control and plotted against time.
Rate constants were calculated using GraphPad software Prism version 6 by fitting a first order exponential decay to the data. The rate constant for each acrylamide with Cdk2 was divided by the rate constant for that fragment with the model thiol to provide the rate enhancement for each ligand candidate.
The model thiol used in Example 2 is a mutant form of human Cdk2 (C177A, F80C, K278C) which contains two engineered surface exposed cysteine residues. Mutations were introduced by site-directed mutagenesis and the resulting cDNA was cloned into the pRSETA bacterial expression vector to generate a poly-histidine tagged Cdk2 fusion that was purified from E. coli using standard techniques.

[4] = molecular target: T3, Cdk2(C177A, F80C) (Homo sapiens, UniProt P24941, C177A/F80C); assay: Kinetic thiol consumption assay with Cdk2 mutant F80C, incl. kobs versus concentration (Kd, k2); assay type: binding; parameters: key to Rate enhancement, Cdk2 F80C: Cdk2 rate constant divided by model-thiol rate constant; details: additional mutation C177A; for Rate constant with Cdk2 F80C: Protein: Cdk2, cysteine position F80C, in h^-1
T3 construct: poly-histidine; made in house; host or cells: E. coli
Summary of the method: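 His-tagged Cdk2(C177A/F80C) from E. coli or model thiol, 5 μM in degassed phosphate buffer pH 8 with TCEP beads, reacted with acrylamide ligands; fluorescence (ex/em 380/470 nm) normalized to DMSO control and fitted to first-order decay for kobs. Kd and k2 obtained from hyperbolic fit of kobs versus ligand concentration.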

[5] = molecular target: T4, Cdk2(H71C) (C177A) (Homo sapiens, UniProt P24941, C177A/H71C); assay: Kinetic thiol consumption assay with Cdk2 mutant H71C; assay type: binding; parameters: key to Rate enhancement, Cdk2 H71C: rate constant with Cdk2 ÷ rate constant with model thiol (fold); details: additional mutation C177A; for Rate constant with Cdk2 H71C: Protein: Cdk2, cysteine position H71C, in h^-1
T4 construct: poly-histidine; made in house; host or cells: E. coli
Summary of the method: (§1)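 Read-out is fluorescence at 380/470 nm, taken after 1 h at room temperature and normalized to a DMSO/thiol-only control over time. Thiol (5 μM Cdk2 mutant or model thiol) was in degassed pH 8 phosphate buffer with 2% v/v TCEP beads. Acrylamide rate constants for Cdk2 were divided by those with model thiol.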

[6] = molecular target: T5, Cdk2(S276C) (C177A) (Homo sapiens, UniProt P24941, C177A/S276C); assay: Kinetic thiol consumption assay with Cdk2 mutant S276C; assay type: binding; parameters: key to Rate enhancement, Cdk2 S276C: rate constant with Cdk2 ÷ rate constant with model thiol (fold); details: additional mutation C177A; for Rate constant with Cdk2 S276C: Protein: Cdk2, cysteine position S276C, in h^-1
T5 construct: poly-histidine; made in house; host or cells: E. coli
Summary of the method: as §1

[7] = molecular target: T6, Cdk2(N272C) (C177A) (Homo sapiens, UniProt P24941, C177A/N272C); assay: Kinetic thiol consumption assay with Cdk2 mutant N272C; assay type: binding; parameters: key to Rate enhancement, Cdk2 N272: rate constant with Cdk2 ÷ rate constant with model thiol (fold); details: for Rate enhancement, Cdk2 N272: Cdk2 N272, additional mutation C177A; for Rate constant with Cdk2 N272C: Protein: Cdk2, cysteine position N272C, additional mutation C177A, in h^-1
T6 construct: poly-histidine; made in house; host or cells: E. coli
Summary of the method: as §1

[8] = molecular target: T7, Cdk2(T182C) (C177A) (Homo sapiens, UniProt P24941, C177A/T182C); assay: Kinetic thiol consumption assay with Cdk2 mutant T182C; assay type: binding; parameters: key to Rate enhancement, Cdk2 T182C: rate constant with Cdk2 ÷ rate constant with model thiol (fold); details: additional mutation C177A; for Rate constant with Cdk2 T182C: Protein: Cdk2, cysteine position T182C, in h^-1
T7 construct: poly-histidine; made in house; host or cells: E. coli
Summary of the method: as §1

[9] = molecular target: T8, Cdk2(R122C) (C177A) (Homo sapiens, UniProt P24941, C177A/R122C); assay: Kinetic thiol consumption assay with Cdk2 mutant R122C; assay type: binding; parameters: key to Rate enhancement, Cdk2 R122C: rate constant with Cdk2 ÷ rate constant with model thiol (fold); details: additional mutation C177A; for Rate constant with Cdk2 R122C: Protein: Cdk2, cysteine position R122C, in h-1
T8 construct: poly-histidine; made in house; host or cells: E. coli
Summary of the method: as §1

[10] = molecular target: T9, Cdk2(S181C) (C177A) (Homo sapiens, UniProt P24941, C177A/S181C); assay: Kinetic thiol consumption assay with Cdk2 mutant S181C; assay type: binding; parameters: key to Rate enhancement, Cdk2 S181C: rate constant with Cdk2 ÷ rate constant with model thiol (fold); details: additional mutation C177A; for Rate constant with Cdk2 S181C: Protein: Cdk2, cysteine position S181C, in h^-1
T9 construct: poly-histidine; made in house; host or cells: E. coli
Summary of the method: as §1

SMILES | Rate constant with glutathione (k(GSH)) [1] | Rate constant with Glutathione [1] | Rate constant with Cdk2 (k(Cdk2)) [2] | Rate enhancement, Cdk2 WT [2] | Rate constant with Cdk2 WT [2] | k(Cdk2)/k(Cdk2_mut) rate enhancement [2] | k(Cdk2)/k(GSH) rate enhancement [2] | Rate constant with Cdk2[C177A, F80C, K278C] (k(Cdk2_mut)) [3] | Rate enhancement, Cdk2 F80C [4] | Rate enhancement, Cdk2 H71C [5] | Rate enhancement, Cdk2 S276C [6] | Rate constant with Cdk2 S276C [6] | Rate enhancement, Cdk2 N272 [7] | Rate constant with Cdk2 N272C [7] | Rate enhancement, Cdk2 T182C [8] | Rate constant with Cdk2 T182C [8] | Rate enhancement, Cdk2 R122C [9] | Rate constant with Cdk2 R122C [9] | Rate enhancement, Cdk2 S181C [10] | Rate constant with Cdk2 S181C [10] | further results
C=CC(=O)NCCc1c(-c2ccccn2)[nH]c2ccc(F)cc12 [EL-1084] | 0.00286 | 0.004273 | 0.00314 | 1.173 | 0.005012 | 0.5247 | 1.101 | 0.00599 | 1.7587E−11 | 0 | 0.4117 | 0.001759 | 0.608 | 0.002598 | 1.828 | 0.007812 | 0.229 | 0.0009787 | 0.09078 | 0.0003879 | Rate constant with Cdk2 F80C [4]: 7.515E−14
C=CC(=O)Nc1ccccc1C(=O)c1ccccc1 [EL-1004] | 0.01818 | 0.01811 | 0.06444 | 3.558 | 0.06444 | 0.3351 | 3.545 | 0.1923 | 22.32 | 2.131 | 1.281 | 0.02319 | 0.4117 | 0.007455 | 7.09 | 0.1284 | 0.9845 | 0.01783 | 0.9371 | 0.01697 | Rate constant with Cdk2 F80C [4]: 0.4042; Rate constant with Cdk2 H71C [5]: 0.03859
C=CC(=O)NCC1CN(C2CC2)CCO1 (centres unmarked) [CA-038] | 0.0065 | 0.01131 | 0.00332 | 0.5218 | 0.005901 | 0.9623 | 0.5101 | 0.00345 | 0 | 0.8254 | 0.5828 | 0.006591 | 0.592 | 0.006696 | 1.744 | 0.01973 | 0.3691 | 0.004175 | 0.4715 | 0.005333 | Rate constant with Cdk2 H71C [5]: 0.009335
C=CC(=O)N1CCN(Cc2ccc(Cl)cc2)CC1 [EL-1183] | 0.00676 | 0.006554 | 0.00376 | 0.574 | 0.003762 | 0.4353 | 0.5564 | 0.00864 | 2.859 | 1.823 | 0.8088 | 0.005301 | 0.4193 | 0.002748 | 2.26 | 0.01481 | 0.5841 | 0.003828 | 0.8531 | 0.005591 | Rate constant with Cdk2 F80C [4]: 0.01874; Rate constant with Cdk2 H71C [5]: 0.01195
C=CC(=O)N1CCC2(CC1)CC2C(=O)OC (centres unmarked) [CA-039] | 0.00141 | 0.002035 | 0.00187 | 0.2802 | 0.0005702 | 0.6155 | 1.327 | 0.00304 | 0 | 0 | 1.14 | 0.002319 | 0.7499 | 0.001526 | 1.425 | 0.0029 | 0.8889 | 0.001809 | 0.6334 | 0.001289 | 
C=CC(=O)Nc1cccc(C(F)(F)F)c1 [BN-80] | 0.02984 | 0.02983 | 0.0419 | 1.405 | 0.0419 | 0.3263 | 1.404 | 0.1284 | 1.308 | 0.1247 | 0.6024 | 0.01797 | 0.2072 | 0.006181 | 4.026 | 0.1201 | 0.5528 | 0.01649 | 0.4626 | 0.0138 | Rate constant with Cdk2 F80C [4]: 0.03902; Rate constant with Cdk2 H71C [5]: 0.003721
